From patent US20250241313A1, “APPLICATION OF ACTIVE SUBSTANCE IN IMPROVING SEED VIGOR AND METHOD FOR IMPROVING SEED VIGOR” (HUNAN HYBRID RICE RESEARCH CENTER, priority 2024, published 2025)

How the values were obtained:
Format in all cases: in vivo
tobacco seeds = test: Tobacco seed germination (seed vigor) after seed soaking; conditions: for Average germination index / average germination potential / Average germination rate: tobacco seeds soaked 24 hours in 0.3 mM aqueous solution; for average germination potential: first 5 days; for Average germination rate: within 7 days
Protocol: (§1) In the following examples, the relative activity index is calculated by the following formula: • (1) average germination rate: ×100% (total number of germinated seeds/total number of tested seeds within 7 days); • (2) average germination potential: ×100% (total number of germinated seeds/total number of tested seeds in the first 5 days); • (3) average germination index: Σ(number of sprouts per day/[…]); • (4) statistical P-value: generally, X represents the statistical quantity of the test, and when H0 is true, the value C of the statistical quantity can be calculated from the sample data, and the P value can be obtained from the specific distribution of the test statistical quantity X. Specifically, the P value of the left test is the probability that the test statistic X is smaller than the sample statistic C, i.e.: P=P {X<C} the P value for the right-side test is the probability that the test statistic X is greater than the sample statistic C: P=P {X>C} the P value of the two-sided test is 2 times the probability that the test statistic X falls within the tail region where the sample statistic C is an endpoint: P=2P {X>C} (when C is located at the right end of the distribution curve) or P=2P {X<C} (when C is located at the left end of the distribution curve) if X obeys a normal distribution and a t-distribution, the distribution curve is symmetric about the vertical axis, so its P value can be represented as P=P {|X|>C}; • after the P-value has been calculated, a test can be concluded by comparing a given significance level a to the P-value: rejecting the original hypothesis if a>P value; if a≤P value, the original assumption is accepted at significance level a. […]

rice seeds = test: Rice seed germination (seed vigor) after seed soaking
Protocol: as §1

corn seeds = test: Corn seed germination (seed vigor) after seed soaking; conditions: for Average germination index / average germination potential / Average germination rate: corn seeds soaked 24 hours in 0.3 mM aqueous solution; for average germination potential: first 5 days; for Average germination rate: within 7 days
Protocol: as §1

wheat seeds = test: Wheat seed germination (seed vigor) after seed soaking; conditions: for Average germination index / average germination potential / Average germination rate: wheat seeds soaked 24 hours in 0.3 mM aqueous solution; for average germination potential: first 5 days; for Average germination rate: within 7 days
Protocol: as §1

tomato seeds = test: Tomato seed germination (seed vigor) after seed soaking; conditions: for Average germination index / average germination potential / Average germination rate: tomato seeds soaked 24 hours in 0.3 mM aqueous solution; for average germination potential: first 5 days; for Average germination rate: within 7 days
Protocol: as §1

[1] = rice seeds soaked 24 hours in 0.3 mM aqueous solution
[2] = rice seeds soaked 24 hours in 0.3 mM aqueous solution, germinated in the first 5 days
[3] = rice seeds soaked 24 hours in 0.3 mM aqueous solution, germinated within 7 days, 3 parallel groups

Structure (SMILES)	Average germination index (tobacco seeds)	average germination potential (tobacco seeds) [%]	Average germination rate (tobacco seeds) [%]	Average germination index (rice seeds; [1])	average germination potential (rice seeds; [2]) [%]	Average germination rate (rice seeds; [3]) [%]	Average germination index (corn seeds)	average germination potential (corn seeds) [%]	Average germination rate (corn seeds) [%]	Average germination index (wheat seeds)	average germination potential (wheat seeds) [%]	Average germination rate (wheat seeds) [%]	Average germination index (tomato seeds)	average germination potential (tomato seeds) [%]	Average germination rate (tomato seeds) [%]	also measured
C=C(OP(=O)(O)O)C(=O)O [PEP, phosphoenolpyruvate]	12.78	64	70	11.04	66	72	14.2 ^	70	68	6.367	24	24	9.783	59	60	germination condition and root system growth versus water control (FIG. 9) (tobacco seeds; tobacco seeds, 0.3 mM, day 7): the root system growth of the tobacco seeds can be accelerated; Average germination index (rice seeds; rice seeds, 0.09 mM aqueous solution): 8.43; average germination potential (rice seeds; rice seeds, 0.09 mM aqueous solution, first 5 days): 61%; Average germination rate (rice seeds; rice seeds, 0.09 mM aqueous solution, within 7 days): 63%; Average germination index (rice seeds; rice seeds, 0.2 mM aqueous solution): 11.04; average germination potential (rice seeds; rice seeds, 0.2 mM aqueous solution, first 5 days): 66%; Average germination rate (rice seeds; rice seeds, 0.2 mM aqueous solution, within 7 days): 72%; germination condition and root system / leaf growth versus water control (FIG. 1-3) (rice seeds; rice seeds, 0.3 mM, day 4 and day 7): significantly accelerate the growth of the root system and leaf of rice seeds; germination condition and root growth versus water control (FIG. 6-7) (corn seeds; corn seeds, 0.3 mM, day 7): the root growth of the corn seeds can be accelerated; germination condition and root growth versus water control (FIG. 4-5) (wheat seeds; wheat seeds, 0.3 mM, day 7): the root growth of the wheat seeds can be accelerated; germination condition and root system growth versus water control (FIG. 8) (tomato seeds; tomato seeds, 0.3 mM, day 7): the root system growth of the tomato seeds can be accelerated
C=C(OP(=O)([O-])O)C(=O)O.[K+] [PEP-K salt, potassium phosphoenolpyruvate]	11.83	64	66	10.76	64	68	14.5 ^	70	68	6.333	21	22	10.73	64	65	Average germination index (rice seeds; rice seeds, 0.5 mM aqueous solution): 10.76; average germination potential (rice seeds; rice seeds, 0.5 mM aqueous solution, first 5 days): 64%; Average germination rate (rice seeds; rice seeds, 0.5 mM aqueous solution, within 7 days): 68%
C=C(OP(=O)(O)O)C(=O)O.NC1CCCCC1 [PEP-cyclohexylammonium salt, cyclohexylammonium phosphoenolpyruvate]	10.53	65	68	10.82	66	70	10.25 ^	60	58	5.067	19	21	10.23	65	66	Average germination index (rice seeds; rice seeds, 1.1 mM aqueous solution): 9.82; average germination potential (rice seeds; rice seeds, 1.1 mM aqueous solution, first 5 days): 64%; Average germination rate (rice seeds; rice seeds, 1.1 mM aqueous solution, within 7 days): 62%
